Earlier results, collected in article PMC8025584, “Identification of multipotent drugs for COVID-19 therapeutics with the evaluation of their SARS-CoV2 inhibitory activity” (Computational and Structural Biotechnology Journal, 2021).
Where a name gives a salt, the structure may show the parent alone. Read-outs that look alike come from different tables or passages of the source. Where no end group is shown, it is not given here.

Test system: differentially expressed human proteins in COVID-19
Settings: cited from earlier work
[1] = gene TNF, drug-gene interaction listed in DGIdb export, ref DGIdb
[2] = gene TNFSF13B, drug-gene interaction listed in DGIdb export, ref DGIdb
[3] = gene F5, drug-gene interaction listed in DGIdb export, ref DGIdb

CC1=C(/C=C/C(C)=C/C=C/C(C)=C/C(=O)O)C(C)(C)CCC1 [TRETINOIN, reference compound]
interaction_types (gene RXRB, ref DGIdb): agonist

NS(=O)(=O)c1cc2c(cc1Cl)NC(C(Cl)Cl)NS2(=O)=O (centres unmarked) [TRICHLORMETHIAZIDE, reference compound]
interaction_types (gene CA1, ref DGIdb): inhibitor

Cc1ccc2c(=O)c3cccc(CC(=O)O)c3oc2c1C [VADIMEZAN]
interaction_types [1]: inducer

CC[C@]1(O)C[C@@H]2CN(CCc3c([nH]c4ccccc34)[C@@](C(=O)OC)(c3cc4c(cc3OC)N(C)[C@H]3[C@@](O)(C(=O)OC)[C@H](OC(C)=O)[C@]5(CC)C=CCN6CC[C@]43[C@@H]65)C2)C1 [VINBLASTINE SULFATE]
interaction_types (gene TUBA4A, ref DGIdb): inhibitor

CC[C@]1(O)C[C@H]2CN(CCc3c([nH]c4ccccc34)[C@@](C(=O)OC)(c3cc4c(cc3OC)N(C=O)[C@H]3[C@@](O)(C(=O)OC)[C@H](OC(C)=O)[C@]5(CC)C=CCN6CC[C@]43[C@@H]65)C2)C1 [VINCRISTINE SULFATE]
interaction_types (gene TUBA4A, ref DGIdb): inhibitor

CC[C@]12C=CCN3CC[C@@]4(c5cc([C@@]6(C(=O)OC)C[C@@H]7C[C@@H](C(C)(F)F)CN(Cc8c6[nH]c6ccccc86)C7)c(OC)cc5N(C)[C@H]4[C@@](O)(C(=O)OC)[C@@H]1OC(C)=O)[C@@H]32 [VINFLUNINE]
interaction_types (gene TUBA4A, ref DGIdb): inhibitor

CCC1=C[C@@H]2CN(C1)Cc1c([nH]c3ccccc13)[C@@](C(=O)OC)(c1cc3c(cc1OC)N(C)[C@H]1[C@@](O)(C(=O)OC)[C@H](OC(C)=O)[C@]4(CC)C=CCN5CC[C@]31[C@@H]54)C2 [VINORELBINE TARTRATE]
interaction_types (gene TUBA4A, ref DGIdb): inhibitor

CN(CCO)CC(O)Cn1cnc2c1c(=O)n(C)c(=O)n2C (centres unmarked) [XANTHINOL]
interaction_types (gene RPL3, drug-gene interaction listed in DGIdb export, ref DGIdb): binder

CC(C)c1cc(CNc2nc(Nc3cc(C4CC4)[nH]n3)cc(N3CCN(C)CC3)n2)on1 [XL-228]
interaction_types (gene FGR, ref DGIdb): inhibitor | interaction_types (gene HCK, drug-gene interaction listed in DGIdb export, ref DGIdb): inhibitor

C=CC(=O)N1CCC([C@@H]2CCNc3c(C(N)=O)c(-c4ccc(Oc5ccccc5)cc4)nn32)CC1 [ZANUBRUTINIB]
interaction_types (gene FGR, ref DGIdb): inhibitor

CSCC[C@@H]1NC(=O)[C@H](CC(C)C)NC(=O)[C@H](CCCNC(=N)N)NC(=O)[C@H](CO)NC(=O)[C@@H]2CSSC[C@@H]3NC(=O)[C@H](CO)NC(=O)CNC(=O)[C@H]([C@@H](C)O)NC(=O)[C@H](CSSC[C@H](N)C(=O)N[C@@H](CCCCN)C(=O)NCC(=O)N[C@@H](CCCCN)C(=O)NCC(=O)N[C@@H](C)C(=O)N[C@@H](CCCCN)C(=O)N2)NC(=O)[C@H](CSSC[C@@H](C(N)=O)NC(=O)[C@H](CCCCN)NC(=O)CNC(=O)[C@H](CO)NC(=O)[C@H](CCCNC(=N)N)NC3=O)NC(=O)[C@H](CC(=O)O)NC(=O)[C@H](Cc2ccc(O)cc2)NC1=O [ZICONOTIDE]
interaction_types: inhibitor

NS(=O)(=O)Cc1noc2ccccc12 [ZONISAMIDE]
interaction_types (gene CA1, ref DGIdb): inhibitor

CCCN(c1ccncc1F)n1cc(C)c2ccccc21 [[…]]
interaction_types (gene KCNH7, ref DGIdb): blocker

C[C@@H]1O[C@@H](O[C@@H]2[C@@H](NC(=O)c3cc(=O)[nH]c(=O)[nH]3)C[C@@H](C(=O)NCCNC(=O)COCCOCC(=O)Nc3cc(S(=O)(=O)O)cc4cc(S(=O)(=O)O)cc(S(=O)(=O)O)c34)C[C@H]2O[C@@H]2O[C@H](CO)[C@H](O)[C@H](O[C@@H](CC3CCCCC3)C(=O)O)[C@H]2OC(=O)c2ccccc2)[C@@H](O)[C@H](O)[C@@H]1O [[…]]
interaction_types (gene SELL, ref DGIdb): antagonist

Nc1cnc(-c2cc(Cl)cc(Cl)c2Cl)c(N)n1 [[…]]
interaction_types (gene CACNA1A, drug-gene interaction listed in DGIdb export, ref DGIdb): blocker

c1ccc(-c2[nH]ncc2-c2ccnc3ccccc23)nc1 [chembl:CHEMBL261454]
interaction_types (gene GAK, drug-gene interaction listed in DGIdb export, ref DGIdb): inhibitor

COc1cc(/C=N/NC(=O)c2ccc3c(c2)OCO3)ccc1OCc1ccccc1 [chembl:CHEMBL1290251]
interaction_types (gene FPR1, ref DGIdb): agonist

ADALIMUMAB
interaction_types [1]: antibody¦inhibitor

ALDESLEUKIN
interaction_types: agonist

BAMINERCEPT
interaction_types (gene TNFSF14, ref DGIdb): inhibitor

BASILIXIMAB
interaction_types (gene IL2RG, ref DGIdb): inhibitor

BELIMUMAB
interaction_types [2]: antibody¦inhibitor¦modulator

BRENTUXIMAB VEDOTIN
interaction_types (gene TUBA4A, ref DGIdb): inhibitor

CEPROTIN
interaction_types [3]: inactivator

DENENICOKIN
interaction_types (gene IL2RG, ref DGIdb): agonist

DROTRECOGIN ALFA (ACTIVATED)
interaction_types [3]: inhibitor

ETANERCEPT
interaction_types [1]: inhibitor¦antibody

FILGRASTIM
interaction_types (gene CSF2RB, ref DGIdb): agonist | interaction_types (gene CSF3R, ref DGIdb): stimulator¦agonist

INFLIXIMAB
interaction_types [1]: inhibitor

INTERLEUKIN 15, RECOMBINANT NON-GLYCOSYLATED
interaction_types (gene IL2RG, ref DGIdb): agonist

LIPEGFILGRASTIM
interaction_types (gene CSF3R, ref DGIdb): agonist

LVVYPWT [SPINORPHIN]
interaction_types (gene FPR1, ref DGIdb): antagonist

NADROPARIN
interaction_types (gene FOS, ref DGIdb): inhibitor

PEGFILGRASTIM
interaction_types (gene CSF3R, ref DGIdb): agonist

POLAPREZINC
interaction_types [1]: inhibitor

REGRAMOSTIM
interaction_types (gene CSF2RB, ref DGIdb): agonist

RILONACEPT
interaction_types (gene IL1RN, ref DGIdb): binder

SARGRAMOSTIM
interaction_types (gene CSF2RB, ref DGIdb): agonist

THROMBIN
interaction_types [3]: activator

TRASTUZUMAB EMTANSINE
interaction_types: inhibitor

B1: DACLIZUMAB (antibody, chains of the INN, looked up, V domains shown)
VH: QVQLVQSGAEVKKPGSSVKVSCKASGYTFTSYRMHWVRQAPGQGLEWIGYINPSTGYTEYNQKFKDKATITADESTNTAYMELSSLRSEDTAVYYCARGGGVFDYWGQGTLVTVSS
VL: DIQMTQSPSTLSASVGDRVTITCSASSSISYMHWYQQKPGKAPKLLIYTTSNLASGVPARFSGSGSGTEFTLTISSLQPDDFATYYCHQRSTYPLTFGQGTKVEVK
interaction_types (gene IL2RG, ref DGIdb): inhibitor

B2: LENOGRASTIM (protein, UniProt P09919 31-207, looked up)
Granulocyte …: TPLGPASSLPQSFLLKCLEQVRKIQGDGAALQEKLVSECATYKLCHPEELVLLGHSLGIPWAPLSSCPSQALQLAGCLSQLHSGLFLYQGLLQALEGISPELGPTLDTLQLDVADFATTIWQQMEELGMAPALQPTQGAMPAFASAFQRRAGGVLVASHLQSFLEVSYRVLRHLAQP
modifications: glycosylated
interaction_types (gene CSF3R, ref DGIdb): agonist

B3: TABALUMAB (antibody, chains of the INN, looked up, V domains shown)
VH: QVQLQQWGAGLLKPSETLSLTCAVYGGSFSGYYWSWIRQPPGKGLEWIGEINHSGSTNYNPSLKSRVTISVDTSKNQFSLKLSSVTAADTAVYYCARGYYDILTGYYYYFDYWGQGTLVTVSS
VL: EIVLTQSPATLSLSPGERATLSCRASQSVSRYLAWYQQKPGQAPRLLIYDASNRATGIPARFSGSGSGTDSTLTISSLEPEDFAVYYCQQRSNWPRTFGQGTKVEIK
interaction_types [2]: inhibitor

B4: ASELIZUMAB (antibody, chains of the INN, looked up, V domains shown)
VH: EVQLVESGGGLVQPGGSLRLSCAASGFTFSTYAMSWVRQAPGKGLEWVASISTGGSTYYPDSVKGRFTISRDNAKNTLYLQMNSLRAEDTAVYYCARDYDGYFDYWGQGTLVTVSS
VL: DIQMTQSPSSLSASVGDRVTITCKASQSVDYDGDSYMNWYQQKPGKAPKLLIYAASNLESGIPSRFSGSGSGTDFTLTISSLQPEDFATYYCQQSNEDPWTFGQGTKVEIK
interaction_types (gene SELL, ref DGIdb): inhibitor

B5: OTLERTUZUMAB (antibody, chains of the INN, looked up, V domains shown)
VH: EVQLVQSGAEVKKPGESLKISCKGSGYSFTGYNMNWVRQMPGKGLEWMGNIDPYYGGTTYNRKFKGQVTISADKSISTAYLQWSSLKASDTAMYYCARSVGPFDSWGQGTLVTVSS
VL: EIVLTQSPATLSLSPGERATLSCRASENVYSYLAWYQQKPGQAPRLLIYFAKTLAEGIPARFSGSGSGTDFTLTISSLEPEDFAVYYCQHHSDNPWTFGQGTKVEIK
interaction_types (gene CD37, ref DGIdb): antibody
